From patent US11702443B2, “Therapeutic agents and methods” (Pop Test Oncology LLC, priority 2016, dated 2023)
Converted amounts (≈) assume the structure as drawn. “Also recorded” adds a separate entry of the source. Like-named read-outs stand apart in the source and are kept apart here.

What was measured:
[1] = system: Mycobacterium tuberculosis virulent standard strain H37Rv; assay: Standard resazurin-resorufin assay versus M. tuberculosis H37Rv; assay type: cell-based
[2] = system: Staphylococcus aureus infection; details: cited from earlier work
[3] = system: Staphylococcus aureus ATCC 6538; details: cited from earlier work
[4] = system: Staphylococcus aureus Tour; details: cited from earlier work
[5] = system: Staphylococcus aureus Tour Rif-resistant; details: cited from earlier work
[6] = system: Streptococcus haemolyticus = S. pyogenes C 203; details: Streptococcus haemolyticus C 203, cited from earlier work
[7] = system: Diplococcus pneumoniae = Streptococcus pneumoniae U.C. 41; details: Diplococcus pneumoniae U.C. 41; cited from earlier work
[8] = system: Proteus vulgaris ATCC 881; details: cited from earlier work
[9] = system: Escherichia coli ATCC 10536; details: cited from earlier work
[10] = system: Klebsiella pneumoniae ATCC 10031; details: cited from earlier work
[11] = system: Pseudomonas aeruginosa ATCC 10145; details: cited from earlier work
[12] = system: Mycobacterium tuberculosis ATCC 9360 H37Rv; details: cited from earlier work
[13] = cited from earlier work
[14] = in vivo; cited from earlier work
[15] = system: Human Hepatitis B Virus Subtype ayw; assay: In vitro antiviral activity versus HBV ayw replication, RT-qPCR; assay type: cell-based; details: HepG2 2.2.15
[16] = system: NF-κB; assay: NF-κB-luciferase reporter in mixed cultures of primary astrocytes and microglia; assay type: cell-based, mice; details: 1 μM, 10 μM and 100 μM, 3 hours; then Poly I:C, LPS or TNFα for 24 h
[17] = Solubility
[18] = system: HepG2 2.2.15; assay: Host cytotoxicity in HBV assay; details: HepG2 2.2.15; rows of RT-qPCR assay
[19] = system: cancer cells; assay: Cytotoxicity to cancer cells; assay type: cell-based
[20] = system: Human Hepatitis B Virus Subtype ayw; assay: In vitro antiviral activity versus HBV ayw replication, DNA (Southern) hybridization; assay type: cell-based; details: HepG2 2.2.15
[21] = Host cytotoxicity in HBV assay; details: human, HepG2 2.2.15 cells
[22] = system: B. subtilis; assay: Agar Disk Diffusion Assay with B. subtilis; assay type: cell-based, Bacillus subtilis
[23] = system: Bacillus megaterium; assay: Activity versus Bacillus megaterium; assay type: cell-based
[24] = Hydrolysis in formic acid-acidified (0.05%) HPLC eluent; assay type: physicochemical; details: compared with rifampicin
Experimental: Compound stock solutions were diluted to 2 mM in DMSO and injected into an Agilent 1100 HPLC system using the following conditions for separation: Phenomenex Gemini C18 column, 3×50 mm; flow rate 0.45 ml/min; gradient 5-95% acetonitrile in water over 8 min with all solvents containing 0.05% formic acid. Detection used the following: UV detector—Agilent diode array, monitored at 214 and 254 nm; mass spectrometry detector (MSD)—Agilent MSD, electrospray ionization, positive mode.
The chromatographic separation of TPR-1 is given in FIGS. 15A to C. • There are four peaks (4.462 min, 4.951 min, 5.657 min, 6.679 min) at 214 nm and 254 nm diode array UV detection • No other significant peaks are seen • The two main peaks (4.951 min, 5.657 min) stem from the two discernible, coexisting ionic forms of the rifamycin.
[drawing 32] • In the above picture the left formula is zwitterionic, whereas the right formula is cationic. The zwitterionic form elutes at 4.951 min, since it is more polar, and the cationic form elutes at 5.657 min, since it is more lipophilic. The cationic form was integrated by IDRI as 59%. So the cationic form dominates in the formic acid-acidified (0.05%) HPLC eluent, as to be expected • The two small side peaks stem from hydrolysis of TPR-1 by the formic acid-acidified (0.05%) HPLC eluent. This is a phenomenon well-known for rifampcin (Ref. 2). […]

[25] = Chemical stability (atmospheric oxygen, hydrolysis, UV light)
[26] = strain H37Rv, read-out: Minimal inhibitory concentration 99% (MIC99) in nmol/Liter
[27] = strain H37Rv, read-out: Minimal inhibitory concentration 99% (MIC99) in μg/ml

## CO/N=C/c1c2c(O)c3c(O)c(C)c4c(c3c1O)C(=O)[C@@](C)(O/C=C/[C@H](OC)[C@@H](C)[C@@H](OC(C)=O)[C@H](C)[C@H](O)[C@H](C)[C@@H](O)[C@@H](C)/C=C/C=C(/C)C(=O)N2)O4 [MR-1, (2S,12Z,14E,16S,17S,18R,19R,20R,21S,22R,23S,24E)-21-(acetyloxy)-5,6,9,17,19-pentahydroxy-23-methoxy-8-[(E)-(methoxyimino)methyl]-2,4,12,16,18,20,22-heptamethyl-2,7-(epoxypentadeca[1,11,13]trienimino)naphtho[2,1-b]furan-1,11(2H)-dione]
[1]; [26]
  MIC99: 106 nmol/L
[1]; [27]
  MIC99: 0.08 µg/mL
[2]
  In vivo effective dose 50% (ED50) (mg/kg) in curing Staphylococcus aureus infection in mice, per os: 0.53 mg/kg
  In vivo effective dose 50% (ED50) (mg/kg) in curing Staphylococcus aureus infection in mice, subcutaneous: 0.87 mg/kg
[3]
  MIC (μg/ml) reference 1 (1966): 0.0005 µg/mL (≈ 0.000662 µM)
[4]
  MIC (μg/ml) reference 2 (1974): 0.002 µg/mL (≈ 0.00265 µM)
[5]
  MIC (μg/ml) reference 2 (1974): >100 µg/mL
[6]
  MIC (μg/ml) reference 1 (1966): 0.01 µg/mL (≈ 0.0132 µM)
  MIC (μg/ml) reference 2 (1974): 0.01 µg/mL (≈ 0.0132 µM)
[7]
  MIC (μg/ml) reference 2 (1974): 0.01 µg/mL (≈ 0.0132 µM)
[8]
  MIC (μg/ml) reference 1 (1966): 2 µg/mL (≈ 2.65 µM)
  MIC (μg/ml) reference 2 (1974): 2 µg/mL (≈ 2.65 µM)
[9]
  MIC (μg/ml) reference 1 (1966): 5 µg/mL (≈ 6.62 µM)
  MIC (μg/ml) reference 2 (1974): 5 µg/mL (≈ 6.62 µM)
[10]
  MIC (μg/ml) reference 1 (1966): 10 µg/mL (≈ 13.2 µM)
  MIC (μg/ml) reference 2 (1974): 10 µg/mL (≈ 13.2 µM)
[11]
  MIC (μg/ml) reference 1 (1966): 10 µg/mL (≈ 13.2 µM)
  MIC (μg/ml) reference 2 (1974): 10 µg/mL (≈ 13.2 µM)
[12]
  MIC (μg/ml) reference 1 (1966): 0.1 µg/mL (≈ 0.132 µM)
  MIC (μg/ml) reference 2 (1974): 0.05 µg/mL (≈ 0.0662 µM)
[13]
  In vivo lethal dose 50% (LD50) (mg/kg) intravenous in mice: 152 mg/kg
[14]
  Oral bioavailability: more orally bioavailable than OR-1

## ⅓(11β,17β)-17-Hydroxy-11-[3,4-(methylenedioxy)phenyl]-17-(1-propyn-1-yl)estra-4,9-dien-3-one (PT150)×(2EZ)-2-{(11β,17β)-17-hydroxy-11-[3,4-(methylenedioxy)phenyl]-17-(1-propyn-1-yl)estra-4,9-dien-3-ylidene}hydrazinecarbothioamide [71.8% (E), 28.2% (Z)]×⅓ H2O× 7/9 acetone [PT155]
[15]
  EC50: 10.8 µM
  EC90: > 100 µM
[16]
  Luciferase activity (suppression of inflammation): dose dependent decrease of luciferase activity
[17]; ethanol, acetone, DMSO, DMF, ethyl acetate, and chloroform
  Solubility in organic solvents: very soluble
[17]; water
  Solubility in water: not soluble in water initially
[18]
  CC50: > 100 µM

## (11,17)-17-Hydroperoxy-11-[3,4-(methylenedioxy)phenyl]-17-(1-propyn-1-yl)estra-4,9-dien-3-one-(11,17)-17-hydroxy-11-[3,4-(methylenedioxy)phenyl]-17-(1-propyn-1-yl)estra-4,9-dien-3-one (1:1) [PT157]
[16]
  Luciferase activity (suppression of inflammation): dose dependent decrease of luciferase activity

## CO[C@H]1/C=C/O[C@@]2(C)Oc3c(C)c(O)c4c(O)c(c(/C=N/O)c(O)c4c3C2=O)NC(=O)/C(C)=C\C=C\[C@H](C)[C@H](O)[C@@H](C)[C@@H](O)[C@@H](C)[C@H](OC(C)=O)[C@@H]1C [OR-1, 3-Formylrifamycin SV (E)-oxime 1.2 hydrate]
[1]; [26]
  MIC99: 787 nmol/L
[1]; [27]
  MIC99: 0.6 µg/mL
[2]
  In vivo effective dose 50% (ED50) (mg/kg) in curing Staphylococcus aureus infection in mice, per os: 5.66 mg/kg
  In vivo effective dose 50% (ED50) (mg/kg) in curing Staphylococcus aureus infection in mice, subcutaneous: 2.46 mg/kg
[3]
  MIC (μg/ml) reference 1 (1966): 0.02 µg/mL
[4]
  MIC (μg/ml) reference 2 (1974): 0.02 µg/mL
[5]
  MIC (μg/ml) reference 2 (1974): >100 µg/mL
[6]
  MIC (μg/ml) reference 1 (1966): 0.01 µg/mL
  MIC (μg/ml) reference 2 (1974): 0.01 µg/mL
[7]
  MIC (μg/ml) reference 2 (1974): 0.01 µg/mL
[8]
  MIC (μg/ml) reference 1 (1966): 10 µg/mL
  MIC (μg/ml) reference 2 (1974): 10 µg/mL
[9]
  MIC (μg/ml) reference 1 (1966): 5 µg/mL
  MIC (μg/ml) reference 2 (1974): 5 µg/mL
[10]
  MIC (μg/ml) reference 1 (1966): 20 µg/mL
  MIC (μg/ml) reference 2 (1974): 20 µg/mL
[11]
  MIC (μg/ml) reference 1 (1966): 10 µg/mL
  MIC (μg/ml) reference 2 (1974): 10 µg/mL
[12]
  MIC (μg/ml) reference 1 (1966): 5 µg/mL
  MIC (μg/ml) reference 2 (1974): 5 µg/mL
[13]
  In vivo lethal dose 50% (LD50) (mg/kg) intravenous in mice: 690 mg/kg
[14]
  Oral bioavailability: orally bioavailable

## Tetrakis{3-[(tricyclo[3.3.1.1^3,7]decan-1-ammonio)methyl]benzyl}ammonium pentachloride [PT162]
[19]
  Cytotoxicity to cancer cells: extremely cytotoxic to cancer cells

## Nc1ccn([C@@H]2CS[C@H](CO)O2)c(=O)n1 [Lamivudine]
[20]
  EC50: 0.026 µM
  EC90: 0.116 µM
[21]
  CC50: 2190 µM

## CO[C@H]1/C=C/O[C@@]2(C)Oc3c(C)c(O)c4c(O)c(c(/C=N/N5CC[N+](C)(CC#C[Si](C)(C)C)CC5)c([O-])c4c3C2=O)NC(=O)/C(C)=C\C=C\[C@H](C)[C@H](O)[C@@H](C)[C@@H](O)[C@@H](C)[C@H](OC(C)=O)[C@@H]1C [TPR-1, Nω[3-(Trimethylsilyl)prop-2-yn-1-yl]rifampicinium-4-olate×¾ HBr×H2O]
[1]; [26]
  MIC99: 19.8 to 39.5 nmol/L
[1]; [27]
  MIC99: 0.02 to 0.04 µg/mL
[22]
  Activity versus Bacillus subtilis: highly active
[22]; Bacillus subtilis, paper disc with 1 μg, overnight at 30° C., read-out: Clearance zones (in mm)
  zone of inhibition at 1 µg/disc: 18.3 mm
[22]; Bacillus subtilis, paper disc with 10 μg, overnight at 30° C., read-out: Clearance zones (in mm)
  zone of inhibition at 10 µg/disc: 21.1 mm
[23]
  Activity versus Bacillus megaterium: highly active
[24]
  Susceptibility to hydrolysis of the hydrazone imine group in acidic media: more susceptible to this hydrolysis than rifampicin
[16]
  Luciferase activity (suppression of inflammation): dose dependent decrease of luciferase activity
[25]
  Oxidation by atmospheric oxygen: not oxidized by atmospheric oxygen; also recorded: resistant to oxidation
  Stability towards hydrolysis and UV light: enhanced stability towards hydrolysis and UV light

## CO[C@H]1/C=C/O[C@@]2(C)Oc3c(C)c(O)c4c(O)c(c(/C=N/N5CCN(C)CC5)c(O)c4c3C2=O)NC(=O)/C(C)=C\C=C\[C@H](C)[C@H](O)[C@@H](C)[C@@H](O)[C@@H](C)[C@H](OC(C)=O)[C@@H]1C [Rifampicin, reference compound]
[1]; H37RV, read-out: Minimal inhibitory concentration 99% (MIC99) in nmol/Liter (nM)
  MIC99: 72.7 nmol/L
[1]; H37RV, read-out: Minimal inhibitory concentration 99% (MIC99) in μg/ml
  MIC99: 0.06 µg/mL
